# Source: BindingDB's records for doi:10.1021/acs.jmedchem.5b01331 (2016)
# Test: Antagonist activity at recombinant human GPR55 expressed in HEK293 cells assessed as inhibition of LPI mediated receptor activation by measuring LPI EC50 after 5 mins by xCELLigence assay (Rvb = 1.6 to 4.1 nM)
row,Compound,EC50
1,COc1ccc2c(c1)OC(C)(C)c1cn(CCN3CCN(C(=O)C4CCCO4)CC3)nc1-2 (centres undefined),0.025 µM
2,COc1ccc2c(c1)OC(C)(C)c1cn(CCN3CCN(C(=O)c4ccccc4)CC3)nc1-2,0.016 µM
3,COc1ccc(N2CCN(CC(=O)NCn3ncc4c3-c3ccc(OC)cc3OC4(C)C)CC2)cc1,0.027 µM
4,COc1ccc2c(c1)OC(C)(C)c1cn(CNC(=O)CN3CCN(c4cccc(C)c4C)CC3)nc1-2,0.03 µM
5,COc1ccc2c(c1)OC(C)(C)c1cn(CNC(=O)CN3CCN(c4ccccc4OC)CC3)nc1-2,0.028 µM
6,COc1ccc2c(c1)OC(C)(C)c1cn(CNC(=O)CN3CCN(c4ccccc4)CC3)nc1-2,0.032 µM
7,COc1ccc2c(c1)OC(C)(C)c1cnn(CNC(=O)CN3CCN(c4ccccc4)CC3)c1-2,0.028 µM
8,COc1ccc2c(c1)OC(C)(C)c1cnn(CCN3CCN(C(=O)c4cccs4)CC3)c1-2,0.029 µM
9,COc1ccc2c(c1)OC(C)(C)c1cnn(CCN3CCN(C(=O)c4ccco4)CC3)c1-2,0.02 µM
